The source of these data is patent US20240197700A1, “Methods and Compositions for Treating Lysosomal Storage Disorders” (Sanford Health, priority 2021, published 2024).

“Also recorded” adds a separate entry of the source.

Assay [1] has as its system tripeptidyl peptidase 1 (TPP1). The experiment in a line: TPP1 enzyme activity in MEF lysates. In kind it is cell-based, mouse. The procedure:
Treatment with AF38469 increases PPT1 and TPP1 enzyme activity in Batten disease mouse embryonic fibroblasts. Since AF38469 increases the expression of lysosomal genes including the PPT1 and TPP1 enzymes, we asked whether AF38469 increases the overall activity levels of these enzymes in cellulo. Wild type (WT) and mutant cells were treated with vehicle or AF38469 (40 nM). Cells were plated on day 0 and dosed with drug-containing media on DIV3 and DIV5. Cells were lysed, and protein quantification and enzyme activity assay were performed on DIV7. Data was analyzed with GraphPad Prism™. Two-way ANOVA. Mean±S.E.M. Tukey's multiple comparisons test. *p<0.05, **p<0.01, ***p<0.001, ****p<0.0001. Palmitoyl-protein thioesterase 1 (PPT1) is the lysosomal enzyme mutated in CLN1 disease and removes thioester-linked fatty acyl groups from modified cysteines of substrate proteins. Tripeptidyl peptidase 1 (TPP1) is the lysosomal enzyme mutated in CLN2 disease and has broad substrate specificity against various proteins degraded in the lysosome after cleavage.
Since LM11A-31 stimulates the nuclear translocation of transcription factors responsible for lysosome biogenesis, we asked whether LM11A-31 increases the overall activity levels of lysosomalenzymes in cellulo. […] Wild type (WT) and mutant cells were treated with vehicle or LM11A-31 (100 nM). Cells were plated on day 0 and dosed with drug-containing media on DIV3 and DIV5. Cells were lysed, and protein quantification and enzyme activity assay were performed on DIV7. Data was analyzed with GraphPad Prism™. Two-way ANOVA. Mean±S.E.M. Tukey's multiple comparisons test. *p<0.05, **p<0.01, ***p<0.001, ****p<0.0001. […] Palmitoyl-protein thioesterase 1 (PPT1) is the lysosomal enzyme mutated in CLN1 disease and removes thioester-linked fatty acyl groups from modified cysteines of substrate proteins. Tripeptidyl peptidase 1 (TPP1) is the lysosomal enzyme mutated in CLN2 disease and has broad substrate specificity against various proteins degraded in the lysosome after cleavage. Mutations in the CTSD gene, encoding cathepsin d, a lysosomal protease that is involved in the recycling and degradation, is a known cause of Cln10 disease.
Since semaglutide improves lysosomal health and function across diverse cell models of lysosomal storage disorder, we asked whether the function of the lysosomes was improved. […] Additionally, a combination of semaglutide and AF38469, a sortilin inhibitor, increased overall levels of activity for both enzymes in cell lysates. Wild type (WT) and mutant cells were treated with vehicle or semaglutide (100 nM) or AF38469 (40 nM) and semaglutide (100 nM). Cells were plated on in vitro day 0 and dosed with drug-containing media on DIV3 and DIV5. Cells were lysed, and protein quantification and enzyme activity assay were performed on DIV7. Data was analyzed with GraphPad Prism™. Two-way ANOVA. Mean±S.E.M. Tukey's multiple comparisons test. *p<0.05, **p<0.01, ***p<0.001, ****p<0.0001. […] (FIG. 20A). […] Levels of TPP1 enzyme activity in Cln2^R207X were not altered by treatment of semaglutide, as was expected given the lack of a functional TPP1 protein in this model (FIG. 20B). […] Levels of TPP1 enzyme activity in Cln2^R207X were not altered by treatment of AF38469 and semaglutide, as was expected given the lack of a functional TPP1 protein in this model. n=5 wells per treatment (FIG. 20D).

Assay [2] has as its system Cln3^Δex7/8 mice. The experiment in a line: SubC burden (immunohistochemistry) in brain of Cln3^Δex7/8 mice. In kind it is in vivo, mouse.

For semaglutide, the TPP1 enzyme activity entry is reported as “not altered” in assay [1] (semaglutide 100 nM, Cln2^R207X MEFs) and “significantly increased” in assay [1] (semaglutide 100 nM, wild type, Cln3^Δex7/8 MEFs, DIV7). Also, the SubC burden result is listed as “had no significant effect” in assay [2] (semaglutide 2.571 μg/mouse s.c., CA3 of the hippocampus); “had no significant effect” in assay [2] (semaglutide 2.571 μg/mouse s.c., VPM/VPL of the thalamus); “significantly reduced” in assay [2] (semaglutide 25.71 μg/mouse s.c., CA3 of the hippocampus); “significantly elevated” in assay [2] (semaglutide 25.71 μg/mouse s.c., VPM/VPL of the thalamus). In assay [2] (semaglutide 2.571 μg/mouse, 25.71 μg/mouse s.c., S1BF of the somatosensory cortex), the “accumulation of mitochondrial ATP synthase subunit C (SubC)” value was “had no significant effect”.
For the molecule `CC[C@H](C)[C@H](N)C(=O)NCCN1CCOCC1` [LM11A-31, N-[2-(morpholin-4-yl)ethyl]-L-isoleucinamide], the TPP1 enzyme activity result in assay [1] (LM11A-31 100 nM, wild type and Cln3^Δex7/8 MEFs, DIV7) is “significantly increased”.
Turning to `Cc1cccc(NC(=O)c2ccc(C(F)(F)F)cc2C(=O)O)n1` [AF38469, 2-((6-methylpyridin-2-yl)carbamoyl)-5-(trifluoromethyl)benzoic acid], the TPP1 enzyme activity result in assay [1] (AF38469 40 nM, Cln2^R207X MEFs) is listed as “not altered”; in assay [1] (AF38469 40 nM, wild type, Cln3^Δex7/8, Cln6^nclf, Cln11^−/− MEFs, DIV7), “increased the overall levels of activity; also recorded: significantly increased”. For the same molecule, in assay [2] (overall statement, short term treatment, Cln3^Δex7/8), the SubC accumulation result is listed as “reduces”.
